ChEMBL document CHEMBL3217510, “Rhodanine carboxylic acids as novel inhibitors of histone acetyltransferases” (Medchemcomm, 2012)
Blank lines part the entries; values can stand above or below the compound they belong to.

Experiments:
[1] = target: T1, Histone acetyltransferase KAT2B (Homo sapiens, UniProt Q92831); assay: Inhibition of human recombinant N-terminal His-tagged PCAF histone acetyltransferase catalytic domain expressed in Escherichia coli BL21 D3 using biotinylated histone H3 as substrate at 50 uM after 10 mins by TR-FRET analysis relative to control
[2] = target: T1, Histone acetyltransferase KAT2B; assay: Inhibition of human recombinant N-terminal His-tagged PCAF histone acetyltransferase catalytic domain expressed in Escherichia coli BL21 D3 using biotinylated histone H3 as substrate after 10 mins by TR-FRET analysis relative to control
[3] = target: T2, Histone acetyltransferase KAT2A (Homo sapiens, UniProt Q92830); assay: Inhibition of KAT2A (362 to 837) (unknown origin) using biotinylated histone H3 as substrate after 10 mins by TR-FRET analysis relative to control
[4] = target: T3, Histone acetyltransferase p300 (Homo sapiens, UniProt Q09472); assay: Inhibition of KAT3B (965 to 1810) (unknown origin) using biotinylated histone H3 as substrate after 10 mins by TR-FRET analysis relative to control
T3 sequence (Q09472 whole entry): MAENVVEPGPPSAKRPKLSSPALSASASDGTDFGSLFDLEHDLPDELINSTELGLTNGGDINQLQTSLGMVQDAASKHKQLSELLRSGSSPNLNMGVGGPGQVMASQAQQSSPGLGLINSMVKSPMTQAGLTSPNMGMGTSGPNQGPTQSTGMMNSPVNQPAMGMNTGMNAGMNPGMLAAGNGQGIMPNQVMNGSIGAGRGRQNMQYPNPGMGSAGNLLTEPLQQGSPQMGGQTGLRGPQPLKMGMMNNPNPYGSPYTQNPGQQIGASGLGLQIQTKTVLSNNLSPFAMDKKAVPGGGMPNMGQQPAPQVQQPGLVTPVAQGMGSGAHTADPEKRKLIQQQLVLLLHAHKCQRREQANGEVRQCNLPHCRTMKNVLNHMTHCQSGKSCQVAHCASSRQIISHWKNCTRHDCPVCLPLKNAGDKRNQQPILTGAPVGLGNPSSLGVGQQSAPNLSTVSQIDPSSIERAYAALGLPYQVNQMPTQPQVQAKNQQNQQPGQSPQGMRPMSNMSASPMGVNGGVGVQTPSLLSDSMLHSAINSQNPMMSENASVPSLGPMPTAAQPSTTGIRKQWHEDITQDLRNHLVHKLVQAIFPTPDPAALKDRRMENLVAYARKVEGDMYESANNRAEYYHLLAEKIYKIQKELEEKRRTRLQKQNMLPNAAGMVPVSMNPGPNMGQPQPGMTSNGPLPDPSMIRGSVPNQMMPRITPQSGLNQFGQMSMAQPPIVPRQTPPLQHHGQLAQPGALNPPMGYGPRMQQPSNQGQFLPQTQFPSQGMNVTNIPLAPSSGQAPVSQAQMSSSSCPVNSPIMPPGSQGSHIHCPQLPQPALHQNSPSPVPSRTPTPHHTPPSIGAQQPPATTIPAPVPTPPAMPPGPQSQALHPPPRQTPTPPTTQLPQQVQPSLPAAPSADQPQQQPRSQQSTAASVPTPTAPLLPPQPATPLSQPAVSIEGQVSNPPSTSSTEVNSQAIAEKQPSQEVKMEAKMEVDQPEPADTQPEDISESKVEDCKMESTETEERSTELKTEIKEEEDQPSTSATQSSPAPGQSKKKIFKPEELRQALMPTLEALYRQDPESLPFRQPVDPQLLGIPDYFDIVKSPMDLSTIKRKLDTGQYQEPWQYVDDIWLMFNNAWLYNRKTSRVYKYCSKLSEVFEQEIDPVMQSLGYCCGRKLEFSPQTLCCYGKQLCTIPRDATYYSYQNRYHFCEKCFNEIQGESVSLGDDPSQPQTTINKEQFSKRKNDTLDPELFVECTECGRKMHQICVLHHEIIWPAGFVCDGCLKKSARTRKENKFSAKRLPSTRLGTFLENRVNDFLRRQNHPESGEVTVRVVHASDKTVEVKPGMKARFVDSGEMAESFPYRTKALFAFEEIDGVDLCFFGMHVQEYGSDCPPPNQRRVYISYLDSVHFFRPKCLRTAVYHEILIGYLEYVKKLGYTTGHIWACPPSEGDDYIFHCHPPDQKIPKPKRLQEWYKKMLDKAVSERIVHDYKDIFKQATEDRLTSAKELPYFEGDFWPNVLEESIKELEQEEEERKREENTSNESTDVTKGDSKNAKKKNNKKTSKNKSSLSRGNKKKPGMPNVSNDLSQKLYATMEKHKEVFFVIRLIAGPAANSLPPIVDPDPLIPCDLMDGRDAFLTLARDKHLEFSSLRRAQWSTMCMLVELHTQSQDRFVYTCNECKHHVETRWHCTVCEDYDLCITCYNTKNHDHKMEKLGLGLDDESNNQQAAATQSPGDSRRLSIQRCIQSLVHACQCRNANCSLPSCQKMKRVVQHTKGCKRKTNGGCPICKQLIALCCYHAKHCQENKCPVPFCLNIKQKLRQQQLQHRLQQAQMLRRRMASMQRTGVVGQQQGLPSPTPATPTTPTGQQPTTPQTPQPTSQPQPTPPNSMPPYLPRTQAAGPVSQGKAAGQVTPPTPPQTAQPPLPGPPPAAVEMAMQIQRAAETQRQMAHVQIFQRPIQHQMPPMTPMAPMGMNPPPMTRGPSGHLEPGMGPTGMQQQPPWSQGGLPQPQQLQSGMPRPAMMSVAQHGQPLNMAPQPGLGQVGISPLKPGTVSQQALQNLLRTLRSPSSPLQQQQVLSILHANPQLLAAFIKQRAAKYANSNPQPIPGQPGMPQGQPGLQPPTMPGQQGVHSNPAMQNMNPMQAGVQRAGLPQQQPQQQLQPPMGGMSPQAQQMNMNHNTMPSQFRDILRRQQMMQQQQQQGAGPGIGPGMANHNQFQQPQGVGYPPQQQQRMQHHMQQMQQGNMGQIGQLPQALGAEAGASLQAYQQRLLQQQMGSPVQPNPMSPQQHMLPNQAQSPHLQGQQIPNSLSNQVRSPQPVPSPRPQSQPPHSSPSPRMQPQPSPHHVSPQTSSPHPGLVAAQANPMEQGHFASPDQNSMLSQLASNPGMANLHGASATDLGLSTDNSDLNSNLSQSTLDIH

CREB-binding protein [5] = target: T4, CREB-binding protein (Homo sapiens, UniProt Q92793); assay: Inhibition of KAT3A (1319 to 1710) (unknown origin) using biotinylated histone H3 as substrate after 10 mins by TR-FRET analysis relative to control
Target sequence in this assay (Q92793 whole entry): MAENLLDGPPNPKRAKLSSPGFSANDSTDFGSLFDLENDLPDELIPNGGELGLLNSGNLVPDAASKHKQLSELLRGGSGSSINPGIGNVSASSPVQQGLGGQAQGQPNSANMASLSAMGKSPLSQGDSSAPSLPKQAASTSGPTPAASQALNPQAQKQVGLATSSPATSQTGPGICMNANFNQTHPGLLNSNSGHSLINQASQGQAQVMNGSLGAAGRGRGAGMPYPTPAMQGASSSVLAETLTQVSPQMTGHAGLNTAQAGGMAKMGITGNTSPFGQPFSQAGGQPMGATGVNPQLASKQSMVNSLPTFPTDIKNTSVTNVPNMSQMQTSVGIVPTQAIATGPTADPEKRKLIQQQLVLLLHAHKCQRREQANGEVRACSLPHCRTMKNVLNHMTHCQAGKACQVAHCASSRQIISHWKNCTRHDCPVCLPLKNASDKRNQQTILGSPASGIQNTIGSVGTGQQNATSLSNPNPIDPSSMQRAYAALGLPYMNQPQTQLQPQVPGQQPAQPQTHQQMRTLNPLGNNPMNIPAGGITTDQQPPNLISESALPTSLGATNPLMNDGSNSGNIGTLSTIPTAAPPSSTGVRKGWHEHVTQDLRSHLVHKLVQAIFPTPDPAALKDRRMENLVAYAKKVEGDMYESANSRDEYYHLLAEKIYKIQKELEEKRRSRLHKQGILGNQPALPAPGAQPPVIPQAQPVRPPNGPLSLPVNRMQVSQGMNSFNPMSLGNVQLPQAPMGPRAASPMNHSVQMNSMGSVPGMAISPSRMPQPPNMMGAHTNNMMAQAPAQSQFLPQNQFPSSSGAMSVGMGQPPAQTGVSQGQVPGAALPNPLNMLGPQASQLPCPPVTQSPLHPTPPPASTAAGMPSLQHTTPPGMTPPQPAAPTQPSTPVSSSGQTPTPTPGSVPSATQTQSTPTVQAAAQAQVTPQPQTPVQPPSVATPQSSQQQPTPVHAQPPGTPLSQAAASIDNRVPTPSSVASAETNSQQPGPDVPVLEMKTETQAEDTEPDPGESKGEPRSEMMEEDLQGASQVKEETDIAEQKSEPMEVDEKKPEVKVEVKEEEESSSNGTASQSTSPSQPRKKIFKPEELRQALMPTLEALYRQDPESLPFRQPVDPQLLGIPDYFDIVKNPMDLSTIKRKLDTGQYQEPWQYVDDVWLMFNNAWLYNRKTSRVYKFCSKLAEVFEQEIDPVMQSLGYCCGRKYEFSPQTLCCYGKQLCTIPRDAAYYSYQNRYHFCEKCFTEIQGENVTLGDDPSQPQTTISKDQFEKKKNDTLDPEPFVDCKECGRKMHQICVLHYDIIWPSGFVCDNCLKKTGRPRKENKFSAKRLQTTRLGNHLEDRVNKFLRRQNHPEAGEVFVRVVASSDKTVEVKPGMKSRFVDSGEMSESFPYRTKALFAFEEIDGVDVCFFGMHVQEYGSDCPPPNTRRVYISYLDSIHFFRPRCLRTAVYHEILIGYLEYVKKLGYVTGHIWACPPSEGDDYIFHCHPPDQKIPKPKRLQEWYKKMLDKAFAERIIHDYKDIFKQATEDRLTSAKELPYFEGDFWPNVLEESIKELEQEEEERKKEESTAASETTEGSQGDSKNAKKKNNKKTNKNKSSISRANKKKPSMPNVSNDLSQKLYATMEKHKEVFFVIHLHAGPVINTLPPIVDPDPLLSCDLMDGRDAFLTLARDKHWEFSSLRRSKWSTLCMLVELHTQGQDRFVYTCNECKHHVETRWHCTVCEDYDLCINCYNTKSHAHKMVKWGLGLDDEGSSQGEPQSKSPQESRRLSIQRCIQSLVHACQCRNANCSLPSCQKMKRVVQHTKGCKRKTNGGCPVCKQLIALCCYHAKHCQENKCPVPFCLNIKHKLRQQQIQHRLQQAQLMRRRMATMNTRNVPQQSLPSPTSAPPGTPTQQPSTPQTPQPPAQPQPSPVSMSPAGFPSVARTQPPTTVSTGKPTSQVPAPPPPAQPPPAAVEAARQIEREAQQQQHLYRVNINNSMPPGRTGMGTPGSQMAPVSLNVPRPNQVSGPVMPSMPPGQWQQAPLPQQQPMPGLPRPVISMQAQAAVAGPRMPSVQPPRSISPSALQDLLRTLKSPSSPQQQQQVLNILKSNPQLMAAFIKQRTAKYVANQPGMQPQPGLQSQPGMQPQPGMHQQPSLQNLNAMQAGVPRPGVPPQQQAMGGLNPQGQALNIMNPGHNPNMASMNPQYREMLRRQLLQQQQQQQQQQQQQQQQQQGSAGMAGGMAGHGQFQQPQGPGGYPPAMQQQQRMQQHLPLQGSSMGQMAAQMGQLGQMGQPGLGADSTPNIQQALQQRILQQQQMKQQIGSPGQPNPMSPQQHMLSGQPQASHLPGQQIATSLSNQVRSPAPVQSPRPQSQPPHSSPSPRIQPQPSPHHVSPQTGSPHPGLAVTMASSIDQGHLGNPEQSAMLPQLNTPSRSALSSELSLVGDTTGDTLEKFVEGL

[6] = target: T3, Histone acetyltransferase p300; assay: Inhibition of KAT3B (965 to 1810) (unknown origin) using biotinylated histone H3 as substrate at 100 uM after 10 mins by TR-FRET analysis relative to control
CREB-binding protein [7] = target: T4, CREB-binding protein; assay: Inhibition of KAT3A (1319 to 1710) (unknown origin) using biotinylated histone H3 as substrate at 50 uM after 10 mins by TR-FRET analysis relative to control
[8] = target: T3, Histone acetyltransferase p300; assay: Inhibition of KAT3B (965 to 1810) (unknown origin) using biotinylated histone H3 as substrate at 50 uM after 10 mins by TR-FRET analysis relative to control
[9] = target: T2, Histone acetyltransferase KAT2A; assay: Inhibition of KAT2A (362 to 837) (unknown origin) using biotinylated histone H3 as substrate at 50 uM after 10 mins by TR-FRET analysis relative to control

IC50 [2]: 28.8 µM | IC50 [3]: 54.7 µM | IC50 [4]: 61.9 µM | IC50 (CREB-binding protein [5]): 40.9 µM
Structure (SMILES): COc1ccc(CN2C(=O)/C(=C3\SC(=S)N(CCCCCC(=O)O)C3=O)c3ccccc32)cc1

inhibition [1]: 13%
Structure (SMILES): O=C(O)CCCCCN1C(=O)/C(=C2/C(=O)N(Cc3ccccc3)c3ccccc32)SC1=S

IC50 [2]: 67.2 µM | IC50 [3]: 47 µM | IC50 [4]: 81 µM | IC50 (CREB-binding protein [5]): 41 µM
Structure (SMILES): Cc1ccc(CN2C(=O)/C(=C3\SC(=S)N(CCCCCC(=O)O)C3=O)c3ccccc32)cc1

IC50 [2]: 97.7 µM | IC50 [3]: 210 µM | IC50 [4]: 244 µM | IC50 (CREB-binding protein [5]): 116 µM
Structure (SMILES): O=C(O)CCCCCN1C(=O)/C(=C2/C(=O)N(Cc3ccc(F)cc3)c3ccccc32)SC1=S

IC50 [2]: 63.7 µM | IC50 [3]: 63.5 µM | IC50 [4]: 95.3 µM | IC50 (CREB-binding protein [5]): 35.9 µM
Structure (SMILES): Cc1ccc(CN2C(=O)/C(=C3\SC(=S)N(CCCCCCCC(=O)O)C3=O)c3ccccc32)cc1

inhibition [1]: 8%
Structure (SMILES): Cc1ccc(CN2C(=O)/C(=C3\SC(=S)N(CCCCC(=O)O)C3=O)c3ccccc32)cc1

inhibition [1]: 6%
Structure (SMILES): CCN1C(=O)/C(=C2\SC(=S)N(CCCCCC(=O)O)C2=O)c2ccccc21

inhibition [1]: 8% | inhibition (CREB-binding protein [7]): 25% | inhibition [8]: < 5% | inhibition [9]: 6%
Structure (SMILES): COC(=O)CCCCCN1C(=O)/C(=C2/C(=O)N(Cc3ccc(C)cc3)c3ccccc32)SC1=S

IC50 [2]: 78.2 µM | IC50 [3]: 69.6 µM | IC50 [4]: 152 µM | IC50 (CREB-binding protein [5]): 28.4 µM
Structure (SMILES): O=C(O)CCCCCN1C(=O)/C(=C2/C(=O)N(Cc3ccc([N+](=O)[O-])cc3)c3ccccc32)SC1=S

Second part, the compound before the results:

Structure (SMILES): O=C(O)c1ccc(N2C(=O)/C(=C3/C(=O)N(Cc4ccccc4)c4ccccc43)SC2=S)cc1
inhibition [1]: 14%

Structure (SMILES): CC1=C/C(=N/Nc2ccnc3cc(Cl)ccc23)CC1
inhibition [1]: 12%

Structure (SMILES): Cc1ccc(CN2C(=O)/C(=C3\SC(=S)N(C[C@H]4CC[C@H](C(=O)O)CC4)C3=O)c3ccccc32)cc1
IC50 [2]: 41.8 µM | IC50 [3]: 46.4 µM | inhibition [6]: 23% | IC50 (CREB-binding protein [5]): 38.5 µM

Structure (SMILES): COC(=O)CCCCCN1C(=O)/C(=C/c2cc(OC)ccc2OC)SC1=S
inhibition [1]: 21%

Structure (SMILES): O=c1c2cccnc2sn1Cc1ccc(Cl)cc1
IC50 [3]: 89.9 µM | IC50 (CREB-binding protein [5]): 1.95 µM

Structure (SMILES): CN(C)c1ccc(/C=C2\SC(=S)N(CCCCCC(=O)O)C2=O)cc1
inhibition [1]: < 5%

Structure (SMILES): Cc1ccc(CN2C(=O)/C(=C3\SC(=S)N(CCS(=O)(=O)O)C3=O)c3ccccc32)cc1
inhibition [1]: < 5%

Structure (SMILES): O=C(O)CCCCCN1C(=O)/C(=C2/C(=O)Nc3ccccc32)SC1=S
inhibition [1]: 9%

Structure (SMILES): CCCCCCOc1ccc(/C=C2\SC(=S)N(CCCC(=O)O)C2=O)cc1
inhibition [1]: 8%

Structure (SMILES): Cc1ccc(COc2cccc(/C=C3\SC(=S)N(CCCC(=O)O)C3=O)c2)cc1
inhibition [1]: 5%

Structure (SMILES): CCOc1ccccc1/C=C1\SC(=S)N(CCCCCC(=O)OC)C1=O
inhibition [1]: 9%

Structure (SMILES): COc1ccc(/C=C2\SC(=S)N(CCCCCC(=O)O)C2=O)cc1Br
inhibition [1]: 8%

Structure (SMILES): Cc1cccc(NC(=O)CN2C(=O)/C(=C3\SC(=S)N(CCS(=O)(=O)O)C3=O)c3ccccc32)c1
inhibition [1]: 6%

Structure (SMILES): CN1C(=O)/C(=C2\SC(=S)N(CCCCCC(=O)O)C2=O)c2ccccc21
inhibition [1]: 5%

Structure (SMILES): O=C(O)CCCCCN1C(=O)/C(=C/c2ccc(-c3ccccc3)cc2)SC1=S
inhibition [1]: < 5%

Structure (SMILES): COC(=O)CCCCCN1C(=O)/C(=C/c2ccc(C)cc2)SC1=S
inhibition [1]: 24%

Structure (SMILES): COC(=O)CCN1C(=O)/C(=C/c2cc(OC)ccc2OC)SC1=S
inhibition [1]: 8%

Structure (SMILES): O=C1Nc2ccccc2/C1=C1/SC(=S)N(CCS(=O)(=O)O)C1=O
inhibition [1]: < 5%
